# Experimental data published in US12337000B2, “Therapeutic modulators of the reverse mode of ATP synthase” (priority 2017, dated 2025).
# What was measured:
# [1] = cited from earlier work
# [2] = Human pharmacokinetics of oral almitrine dimesylate; format: in vivo; conditions: 0.6*17, after 200 mg oral dose
# [3] = target: F1F0 ATP synthesis and hydrolysis (Homo sapiens, UniProt P06576+P25705); conditions: isolated mitochondria, no matter how great the concentration [114]; cited from earlier work
# [4] = humans [121]; cited from earlier work
# [5] = 30 year pharmacovigilance survey in France, oral, multi-year use [120]
smiles,measurement,setting,value
C=CCNc1nc(NCC=C)nc(N2CCN(C(c3ccc(F)cc3)c3ccc(F)cc3)CC2)n1 [almitrine],peripheral neuropathy,[1]; [5],"2,304 cases"
same,weight loss,[1]; [5],795 cases
same,share of presenting cases categorised as serious,[1]; [120],< 10%
same,patients with reversible lactic acidosis and hepatic dysfunction,"[1]; intravenous 459±155 mg within 24 hours, 25 patients [127]",30%
same,mean onset of adverse reactions,"[1]; oral, chronic use [120]",11 months
same,corresponding tissue concentration (assuming uniform),[2],~10 µM
same,maximal decrease in F1F0 ATP synthesis and hydrolysis,[3],~60%
same,volume of distribution (VD),[4],17 L/kg
